pKi: −log10 of the molar value. Read-outs that look alike come from different tables or passages of the source.
Columns and labels:
human μ-opioid receptor = target: T1, human μ-opioid receptor (Homo sapiens, UniProt P35372); assay: Human μ-opioid receptor radioligand assay ([3H]-DAMGO); format: binding
T1 construct: expressed in transfected cells; host or cells: CHO-K1
Outline: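 Transfected CHO-K1 membranes (20 μg) incubated with 1 nM [3H]-DAMGO in 50 mM Tris-HCl, 5 mM MgCl2, pH 7.4, 60 min at 27 °C; non-specific binding with 10 μM naloxone. Test compound at five concentrations; bound radioactivity counted after filtration by scintillation.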

[1] = target: Human α2δ-1 subunit of Cav2.2 calcium channel (Homo sapiens, UniProt P54289); assay: Human α2δ-1 subunit of Cav2.2 calcium channel assay ([3H]-Gabapentin); format: binding
Outline: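 α2δ-1-enriched membranes (2.5 μg) were incubated with 15 nM [3H]-gabapentin in 10 mM Hepes-KOH pH 7.4 for 60 min at 27 °C. Non-specific binding was defined with 10 μM pregabalin. Compounds were tested at five concentrations, with filtration and scintillation counting.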

[2] = transfected CHO-K1 cell membranes, 1 nM [3H]-DAMGO, read-out: Binding μ (Ki)
[3] = human α2δ-1 enriched membranes, 15 nM [3H]-Gabapentin, read-out: Binding α2δ-1 (Ki)

T1 sequence (P35372 whole entry): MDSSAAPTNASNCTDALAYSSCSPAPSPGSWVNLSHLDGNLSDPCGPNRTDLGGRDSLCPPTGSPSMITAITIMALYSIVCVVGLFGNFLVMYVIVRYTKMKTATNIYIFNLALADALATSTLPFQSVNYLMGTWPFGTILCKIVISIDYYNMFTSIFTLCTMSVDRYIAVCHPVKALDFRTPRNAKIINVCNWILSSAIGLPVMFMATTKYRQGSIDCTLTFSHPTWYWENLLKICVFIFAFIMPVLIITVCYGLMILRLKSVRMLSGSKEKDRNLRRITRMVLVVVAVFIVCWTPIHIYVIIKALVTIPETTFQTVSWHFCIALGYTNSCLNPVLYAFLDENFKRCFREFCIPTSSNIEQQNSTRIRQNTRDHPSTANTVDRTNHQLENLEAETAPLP
Sequence of Human α2δ-1 subunit of Cav2.2 calcium channel (P54289 25-1103): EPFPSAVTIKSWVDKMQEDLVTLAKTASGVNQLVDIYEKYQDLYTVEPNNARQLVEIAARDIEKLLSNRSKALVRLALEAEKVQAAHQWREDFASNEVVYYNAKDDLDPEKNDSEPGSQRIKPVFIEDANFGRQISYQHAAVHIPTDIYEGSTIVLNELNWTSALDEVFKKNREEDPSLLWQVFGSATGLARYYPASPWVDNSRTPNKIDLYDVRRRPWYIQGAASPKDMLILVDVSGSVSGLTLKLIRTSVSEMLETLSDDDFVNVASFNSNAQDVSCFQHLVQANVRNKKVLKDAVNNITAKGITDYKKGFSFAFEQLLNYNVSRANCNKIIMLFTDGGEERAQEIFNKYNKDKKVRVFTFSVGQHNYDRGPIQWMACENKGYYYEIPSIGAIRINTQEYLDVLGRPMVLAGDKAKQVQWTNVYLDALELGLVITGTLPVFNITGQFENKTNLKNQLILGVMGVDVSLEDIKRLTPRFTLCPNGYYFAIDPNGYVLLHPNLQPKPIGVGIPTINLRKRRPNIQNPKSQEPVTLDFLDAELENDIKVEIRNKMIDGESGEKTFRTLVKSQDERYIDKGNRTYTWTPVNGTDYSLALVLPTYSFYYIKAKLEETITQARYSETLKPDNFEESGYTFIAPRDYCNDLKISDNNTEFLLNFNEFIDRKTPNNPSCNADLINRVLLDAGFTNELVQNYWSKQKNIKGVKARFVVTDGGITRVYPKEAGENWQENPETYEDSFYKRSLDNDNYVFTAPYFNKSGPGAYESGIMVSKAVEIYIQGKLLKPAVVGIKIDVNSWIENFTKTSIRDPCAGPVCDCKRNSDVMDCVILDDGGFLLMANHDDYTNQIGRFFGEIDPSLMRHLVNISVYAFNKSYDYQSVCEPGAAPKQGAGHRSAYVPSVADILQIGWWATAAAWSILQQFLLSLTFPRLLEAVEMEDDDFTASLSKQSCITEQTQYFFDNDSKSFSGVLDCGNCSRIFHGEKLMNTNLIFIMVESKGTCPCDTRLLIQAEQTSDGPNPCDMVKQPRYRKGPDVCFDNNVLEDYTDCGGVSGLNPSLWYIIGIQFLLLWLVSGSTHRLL

pKi (human μ-opioid receptor; [2]) | pKi [1, 3] | Structure (SMILES) | pKi (human μ-opioid receptor) | pKi [1]
< 6.30 | 5.30 to 6.30 | CNCCC(Cc1ccccc1)Oc1ccccc1-n1nc2c(N(C)C)nnc(C)c2c1C (stereo not drawn) [Example 77, N,N,3,4-tetramethyl-2-(2-((4-(methylamino)-1-phenylbutan-2-yl)oxy)phenyl)-2H-pyrazolo[3,4-d]pyridazin-7-amine] | – | –
– | – | CNCCC(Oc1ccccc1-n1nc2c(N(C)C)nnc(C)c2c1C)c1cccs1 (stereo not drawn) [Example 78, N,N,3,4-Tetramethyl-2-(2-(3-(methylamino)-1-(thiophen-2-yl)propoxy)phenyl)-2H-pyrazolo[3,4-d]pyridazin-7-amine] | 6.30 to 7.00 | 5.30 to 6.30
– | – | CNCCC(Oc1ccccc1-n1nc2c(N(C)C)nnc(C)c2c1C)c1cccc(O)c1 (stereo not drawn) [Example 79, 3-(1-(2-(7-(Dimethylamino)-3,4-dimethyl-2H-pyrazolo[3,4-d]pyridazin-2-yl)phenoxy)-3-(methylamino)propyl)phenol] | 6.30 to 7.00 | 5.30 to 6.30
< 6.30 | 5.30 to 6.30 | CNCCC(Oc1cc(N2CCCC2=O)ccc1-n1nc2c(N(C)C)nnc(C)c2c1C)c1ccccc1 (stereo not drawn) [Example 80, 1-(4-(7-(Dimethylamino)-3,4-dimethyl-2H-pyrazolo[3,4-d]pyridazin-2-yl)-3-(3-(methylamino)-1-phenylpropoxy)phenyl)pyrrolidin-2-one] | – | –
< 6.30 | < 5.30 | CNCCC(Oc1ccc(N2CCCC2=O)cc1-n1nc2c(N(C)C)nnc(C)c2c1C)c1ccccc1 (stereo not drawn) [Example 81, 1-(3-(7-(dimethylamino)-3,4-dimethyl-2H-pyrazolo[3,4-d]pyridazin-2-yl)-4-(3-(methylamino)-1-phenylpropoxy)phenyl)pyrrolidin-2-one] | – | –
< 6.30 | 5.30 to 6.30 | CNCCC(Oc1cc(NC(C)=O)ccc1-n1nc2c(N(C)C)nnc(C)c2c1C)c1ccccc1 (stereo not drawn) [Example 82, N-(4-(7-(dimethylamino)-3,4-dimethyl-2H-pyrazolo[3,4-d]pyridazin-2-yl)-3-(3-(methylamino)-1-phenylpropoxy)phenyl)acetamide] | – | –
< 6.30 | 5.30 to 6.30 | CNCCC(Oc1ccc(NC(C)=O)cc1-n1nc2c(N(C)C)nnc(C)c2c1C)c1ccccc1 (stereo not drawn) [Example 83, N-(3-(7-(dimethylamino)-3,4-dimethyl-2H-pyrazolo[3,4-d]pyridazin-2-yl)-4-(3-(methylamino)-1-phenylpropoxy)phenyl)acetamide] | – | –
< 6.30 | 5.30 to 6.30 | CNCCC(Oc1ccccc1-n1nc2c(N(C)C)nnc(C)c2c1C)c1cccc(NC(C)=O)c1 (stereo not drawn) [Example 84, N-(3-(1-(2-(7-(dimethylamino)-3,4-dimethyl-2H-pyrazolo[3,4-d]pyridazin-2-yl)phenoxy)-3-(methylamino)propyl)phenyl)acetamide] | – | –
< 6.30 | < 5.30 | CNCCC(Oc1cc(C#N)ccc1-n1nc2c(N(C)C)nnc(C)c2c1C)c1ccccc1 (stereo not drawn) [Example 85, 4-(7-(Dimethylamino)-3,4-dimethyl-2H-pyrazolo[3,4-d]pyridazin-2-yl)-3-(3-(methylamino)-1-phenylpropoxy)benzonitrile] | – | –
< 6.30 | < 5.30 | CNCCC(Oc1ccc(C#N)cc1-n1nc2c(N(C)C)nnc(C)c2c1C)c1ccccc1 (stereo not drawn) [Example 86, 3-(7-(dimethylamino)-3,4-dimethyl-2H-pyrazolo[3,4-d]pyridazin-2-yl)-4-(3-(methylamino)-1-phenylpropoxy)benzonitrile] | – | –
– | – | CCOc1ccc(-n2nc3c(N(C)C)nnc(C)c3c2C)c(OC(CCNC)c2ccccc2)c1 (stereo not drawn) [Example 87, 2-(4-Ethoxy-2-(3-(methylamino)-1-phenylpropoxy)phenyl)-N,N,3,4-tetramethyl-2H-pyrazolo[3,4-d]pyridazin-7-amine] | < 6.30 | > 6.30
< 6.30 | 5.30 to 6.30 | CNCCC(Oc1ccc(OC)cc1-n1nc2c(N(C)C)nnc(C)c2c1C)c1ccccc1 (stereo not drawn) [Example 88, 2-(5-methoxy-2-(3-(methylamino)-1-phenylpropoxy)phenyl)-N,N,3,4-tetramethyl-2H-pyrazolo[3,4-d]pyridazin-7-amine] | – | –

Reference: US10562908B2, “Ortho substituted phenylpyrazolo- and phenylpyrrolo-pyridazine derivatives having multimodal activity against pain” (priority 2016, dated 2020)
